In assay [1] the test system is solid xenograft and spontaneous human tumor and rodent tumor models. As to the kind of experiment: Tumor uptake and retention of CLR1404 in tumor models. The class given is in vivo. The note with it: over fifty solid xenograft and spontaneous human tumor and rodent tumor models. The source says:
(§1) We have developed several series of tumor-selective radiolabeled ether and alkyl phospholipid compounds for imaging, characterization, and treatment of malignant tumors. […] Cellular signaling and regulation of phospholipids, including phospholipase-D and its isoforms, as well as Phosphatase and Tensin Homologue Deleted from Chromosome-10 (PTEN) and phosphatidylinositol phosphate (PIPn) pathways, are known to be directly involved in upstream regulation of many key oncogenic pathways. We now have strong evidence that the uptake and retention of our PLE analogs is due at least in part to these upstream regulation and signaling cancer cell pathways.
A general note: Xenograft models place foreign cells or tissue in a host animal.

The test system of assay [2] is benign or premalignant lesions or inflammatory lesions. As to the kind of experiment: Localization of CLR1404 in non-malignant lesions. In kind it is in vivo. The note with it: stated in contrast to 18F-FDG.
Text: as §1

Data on one compound can be found in patent publication US9339564B2, “Ether and alkyl phospholipid compounds for treating cancer and imaging and detection of cancer” (Cellectar, Inc., priority 2009, dated 2016).

Take `C[N+](C)(C)CCOP(=O)([O-])OCCCCCCCCCCCCCCCCCCc1ccc(I)cc1` [CLR1404, 18-(p-iodophenyl)octadecyl phosphocholine]: the “uptake and retention in tumors” value in assay [1] is “striking uptake and prolonged selective retention properties”. For the same compound, the “localization in benign, premalignant or inflammatory lesions” value in assay [2] is listed as “does not localize in benign or premalignant lesions or in inflammatory lesions”.
